Assay [1] deals with non-small cell lung cancer cell line H460. The assay can be described thus: In vitro human cancer cell line cytotoxicity (proliferation) assay in H460, CellTiter-Glo, 72 hours. Type of assay: cell-based. The conditions noted are these: DMSO condition (no AKR1C3 inhibitor), read-out: CTG H460: Avg IC50 (nM) [Assay Condition: DMSO]. A digest of the protocol: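 IC50s in nM come from CellTiter-Glo viability read after 72 h of compound exposure. Compounds went in from 10 mM DMSO stocks onto H460 cells, which had been plated at 3×10^3 per well and grown 24 h beforehand at 37 °C, 5% CO2.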

For assay [2] the test system is unchanged. In words: H460 proliferation assay in the presence of 3 uM ASP9521 (AKR1C3 specific inhibitor). It counts as cell-based, human. Particulars: H460 cells, CellTiter-Glo, 72 hours, in the presence of 3 uM ASP9521 added 4 hours prior to compounds; read-out: CTG H460: Avg IC50 (nM) [Assay Condition: ASP9521]. A digest of the protocol: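 AKR1C3 blocked with 3 uM ASP9521 given 4 h ahead of test compounds. H460 cells, plated 24 h earlier, were then treated for 72 h at 37 °C in 5% CO2. CellTiter-Glo luminescence gave viability.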

Setting [3] is: Homo sapiens, NCI-H460, 72 h, H460 cells.

Bounds are passed on as bounds.

For `CC1(C)CN(c2cccc(Oc3c([N+](=O)[O-])ccc4c3CCC4OP(=O)(N3CC3)N3CC3)c2)C(=O)O1` (stereo not shown) [Example 417], the half-inhibitory concentration (IC50) in assay [1] (H460 cells) is < 10 nM; in assay [2] it was 712 nM.

For `O=C(c1cccc(Oc2cc3cc(COP(=O)(N4CC4)N4CC4)oc3cc2[N+](=O)[O-])c1)N1CCC1` [Example 535], the half-maximal inhibitory concentration (IC50) in assay [1] (setting [3]) is < 10 nM; in assay [2], 378 nM.

In the case of `O=C(c1cccc(Oc2cc3cc(COP(=O)(N4CC4)N4CC4)oc3cc2[N+](=O)[O-])c1)N1CCOCC1` [Example 556], the IC50 is < 10 nM in assay [1] (H460 cells) and 1060 nM in assay [2].

`O=[N+]([O-])c1cc2oc(COP(=O)(N3CC3)N3CC3)cc2cc1Oc1cccc(C2CC2)c1` [Example 555]: the values for the IC50 in assay [1] (H460 cells) and in assay [2] were < 10 nM and 1490 nM, respectively.

For `Cn1cc(-c2ccc(Oc3cc4c(cc3[N+](=O)[O-])CCC4OP(=O)(N3CC3)N3CC3)cc2)ccc1=O` (stereo not shown) [Example 179], the IC50 in assay [1] (H460 cells) was ≥ 100 nM; in assay [2], 1100 nM.

With `COc1cccc(Oc2c([N+](=O)[O-])ccc3c2CC[C@H]3OP(=O)(N2CC2)N2CC2)c1` [Example 448], the half-maximal inhibitory concentration (IC50) in assay [1] (H460 cells) was < 10 nM; in assay [2], 647 nM.

For `C[C@@H]1CN1P(=O)(OC(c1ccc([N+](=O)[O-])c(Oc2cccc(C(=O)N(C)C)c2)c1)C(F)(F)F)N1C[C@H]1C` (stereo partly shown) [Example 228], the IC50 in assay [1] (H460 cells) is 10 to 50 nM; in assay [2], > 10000 nM.

As to `CC(OP(=O)(N1C[C@H]1C)N1C[C@H]1C)c1ccc([N+](=O)[O-])c(Oc2ccc(C(=O)N(C)C)cc2)c1` (stereo partly shown) [Example 216], the half-inhibitory concentration (IC50) in assay [1] (H460 cells) was < 10 nM; in assay [2], 3240 nM.

For the molecule `O=[N+]([O-])c1ccc2c(c1Oc1cccc(-c3cnc[nH]3)c1)CC[C@@H]2OP(=O)(N1CC1)N1CC1` [Example 362], the concentration for half-maximal inhibition (IC50) is < 10 nM in assay [1] (setting [3]) and 1660 nM in assay [2].

As for `O=[N+]([O-])c1ccc2c(c1Oc1cccc(OC(F)F)c1)CCC2OP(=O)(N1CC1)N1CC1` (racemic) [Example 454], the IC50 in assay [1] (H460 cells) is < 10 nM; in assay [2], 559 nM.

Take `O=C(c1cccc(Oc2c([N+](=O)[O-])ccc3c2CCC3OP(=O)(N2CC2)N2CC2)c1)N1CCOCC1` (single isomer, unassigned) [Example 126]: the concentration for half-maximal inhibition (IC50) is < 10 nM in assay [1] (H460 cells) and 159 nM in assay [2].

Turning to `Cc1nc2cc(Oc3c([N+](=O)[O-])ccc4c3CC[C@H]4OP(=O)(N3CC3)N3CC3)ccc2n1C` [Example 392], the IC50 was < 10 nM in assay [1] (setting [3]) and 785 nM in assay [2].

Turning to `O=[N+]([O-])c1ccc2c(c1Oc1ccc(F)c(OCC3CC3)c1)CC[C@H]2OP(=O)(N1CC1)N1CC1` [Example 488], the values for the IC50 in assay [1] (setting [3]) and in assay [2] were < 10 nM and 857 nM, respectively.

As for `C[C@H](OP(=O)(N1CC1)N1CC1)c1cc2cc(Oc3cccc(C(=O)N4CCOCC4)c3)c([N+](=O)[O-])cc2o1` [Example 557], the half-maximal inhibitory concentration (IC50) in assay [1] (H460 cells) is 10 to 50 nM; in assay [2], 7310 nM.

Consider `CC(OP(=O)(N1C[C@@H]1C)N1C[C@@H]1C)c1ccc([N+](=O)[O-])c(Oc2cccc(C(=O)N(C)C)c2)c1` (single isomer, unassigned) [Example 209], for which the concentration for half-maximal inhibition (IC50) in assay [1] (setting [3]) was < 10 nM; in assay [2], 517 nM.

Take `O=[N+]([O-])c1cc2c(cc1Oc1ccc(C3CC3)cc1)C(OP(=O)(N1CC1)N1CC1)CC2` (stereo not shown) [Example 148]: the IC50 in assay [1] (setting [3]) is < 10 nM; in assay [2], 955 nM.

Turning to `O=C(c1cccc(Oc2c([N+](=O)[O-])ccc3c2CCC3OP(=O)(N2CC2)N2CC2)c1)N1CC(F)(F)C1` (stereo not shown) [Example 67], the half-inhibitory concentration (IC50) in assay [1] (H460 cells) is < 10 nM; in assay [2] it was 541 nM.

With `O=C1COCCN1c1cccc(Oc2c([N+](=O)[O-])ccc3c2CCC3OP(=O)(N2CC2)N2CC2)c1` (stereo not shown) [Example 110], the half-inhibitory concentration (IC50) was < 10 nM in assay [1] (H460 cells) and 2420 nM in assay [2].

`Cn1c(=O)oc2cc(Oc3c([N+](=O)[O-])ccc4c3CCC4OP(=O)(N3CC3)N3CC3)ccc21` (stereo not shown) [Example 121]: the IC50 in assay [1] (setting [3]) was < 10 nM; in assay [2] it was 33.8 nM.

Regarding `O=[N+]([O-])c1cc2c(cc1Oc1ccc(-c3ccccn3)cc1)C(OP(=O)(N1CC1)N1CC1)CC2` (stereo not shown) [Example 524], the IC50 in assay [1] (H460 cells) was < 10 nM; in assay [2] it was 1190 nM.

For `O=[N+]([O-])c1ccc2c(c1Oc1ccc(F)c(-c3ncc(F)cn3)c1)CCC2OP(=O)(N1CC1)N1CC1` (stereo not shown) [Example 329], the results for the IC50 in assay [1] (H460 cells) and in assay [2] were < 10 nM and 2440 nM, respectively.

Consider `C[C@H]1CN1P(=O)(OC(c1ccc([N+](=O)[O-])c(Oc2cccc(C(=O)N(C)C)c2)c1)C(F)(F)F)N1C[C@@H]1C` (stereo partly shown) [Example 227], for which the values for the IC50 in assay [1] (setting [3]) and in assay [2] were 10 to 50 nM and 9760 nM, respectively.

As to `O=[N+]([O-])c1ccc2c(c1Oc1cccc(OC3CC3)c1)CC[C@H]2OP(=O)(N1CC1)N1CC1` [Example 467], the IC50 was < 10 nM in assay [1] (H460 cells) and 4160 nM in assay [2].

Regarding `Cn1cnc2cc(Oc3c([N+](=O)[O-])ccc4c3CC[C@H]4OP(=O)(N3CC3)N3CC3)ccc21` [Example 397], the half-inhibitory concentration (IC50) in assay [1] (Homo sapiens, NCI-H460, H460 cells) is < 10 nM; in assay [2], 956 nM.

Take `O=[N+]([O-])c1ccc2c(c1Oc1ccc(-c3ncccn3)cc1)CCC2OP(=O)(N1CC1)N1CC1` (racemic) [Example 282]: the concentration for half-maximal inhibition (IC50) in assay [1] (H460 cells) was < 10 nM; in assay [2], 1240 nM.

Take `O=[N+]([O-])c1cc2c(cc1Oc1ccc(-c3ccccn3)cc1)C(OP(=O)(N1CC1)N1CC1)CC2` (stereo not shown) [Example 523]: the IC50 is < 10 nM in assay [1] (H460 cells) and 2070 nM in assay [2].

On to `CC(C)Oc1cc(Oc2c([N+](=O)[O-])ccc3c2CCC3OP(=O)(N2CC2)N2CC2)ccc1F` (stereo not shown) [Example 487], for which the half-maximal inhibitory concentration (IC50) in assay [1] (H460 cells) was < 10 nM; in assay [2], 1010 nM.

On to `O=[N+]([O-])c1ccc2c(c1Oc1ccc(O)c(-c3ncc(F)cn3)c1)CCC2OP(=O)(N1CC1)N1CC1` (stereo not shown) [Example 338], for which the IC50 in assay [1] (H460 cells) is 10 to 50 nM; in assay [2], 5560 nM.

For `Cn1cc(-c2ccc(Oc3cc4c(cc3[N+](=O)[O-])CCC4OP(=O)(N3CC3)N3CC3)cc2)ccc1=O` (stereo not shown) [Example 178], the IC50 was ≥ 100 nM in assay [1] (setting [3]) and 1630 nM in assay [2].

Regarding `Cn1c(=O)n(C)c2cc(Oc3c([N+](=O)[O-])ccc4c3CCC4OP(=O)(N3CC3)N3CC3)ccc21` (stereo not shown) [Example 94], the IC50 in assay [1] (H460 cells) is 10 to 50 nM; in assay [2] it was 1450 nM.

Take `CN1Cc2ccc(Oc3cc4c(cc3[N+](=O)[O-])OCCC4OP(=O)(N3CC3)N3CC3)cc2C1=O` (single isomer, unassigned) [Example 201]: the IC50 was < 10 nM in assay [1] (setting [3]) and 605 nM in assay [2].

For the molecule `O=[N+]([O-])c1ccc2c(c1Oc1cncc(OC3CC3)c1)CC[C@@H]2OP(=O)(N1CC1)N1CC1` [Example 471], the half-inhibitory concentration (IC50) in assay [1] (H460 cells) is < 10 nM; in assay [2], 3060 nM.

Regarding `O=[N+]([O-])c1ccc2c(c1Oc1cccc(-c3noc(C4CC4)n3)c1)CCC2OP(=O)(N1CC1)N1CC1` (stereo not shown) [Example 90], the IC50 in assay [1] (setting [3]) is ≥ 100 nM; in assay [2], 9470 nM.

With `CC(OP(=O)(N1C[C@H]1C)N1C[C@H]1C)c1ccc([N+](=O)[O-])c(Oc2ccc(-c3ccccc3)cc2)c1` (stereo partly shown) [Example 220], the half-maximal inhibitory concentration (IC50) in assay [1] (H460 cells) was < 10 nM; in assay [2], 5050 nM.

As for `O=C(c1cccc(Oc2c([N+](=O)[O-])ccc3c2CCC3OP(=O)(N2CC2)N2CC2)c1)N1C[C@H]2CC[C@@H](C1)O2` (stereo partly shown) [Example 250], the concentration for half-maximal inhibition (IC50) in assay [1] (H460 cells) was < 10 nM; in assay [2] it was 1220 nM.

With `O=[N+]([O-])c1ccc2c(c1Oc1ccc(F)c(Br)c1)CCC2OP(=O)(N1CC1)N1CC1` (stereo not shown) [Example 510], the half-inhibitory concentration (IC50) in assay [1] (H460 cells) is < 10 nM; in assay [2], 535 nM.

Regarding `Cc1ccnc(-c2ccc(Oc3c([N+](=O)[O-])ccc4c3CC[C@@H]4OP(=O)(N3CC3)N3CC3)cc2F)n1` [Example 267, (S)-4-(3-fluoro-4-(4-methylpyrimidin-2-yl)phenoxy)-5-nitro-2,3-dihydro-1H-inden-1-yl di(aziridin-1-yl)phosphinate], the values for the IC50 in assay [1] (setting [3]) and in assay [2] were < 10 nM and 639 nM, respectively.

`O=C(c1ccc(Oc2cc3c(cc2[N+](=O)[O-])CCC3OP(=O)(N2CC2)N2CC2)cc1)N1CCOCC1` (stereo not shown) [Example 161]: the IC50 in assay [1] (H460 cells) was < 10 nM; in assay [2] it was 339 nM.

As to `O=[N+]([O-])c1cc2c(cc1Oc1ccc(-c3ccccc3)nc1)C(OP(=O)(N1CC1)N1CC1)CC2` (stereo not shown) [Example 193], the IC50 in assay [1] (H460 cells) is < 10 nM; in assay [2], 880 nM.

Consider `O=C1CCCN1c1cc(Oc2c([N+](=O)[O-])ccc3c2CC[C@H]3OP(=O)(N2CC2)N2CC2)ccc1F` [Example 428], for which the half-inhibitory concentration (IC50) was < 10 nM in assay [1] (H460 cells) and 1200 nM in assay [2].

Turning to `Cn1cccc(-c2ccc(Oc3c([N+](=O)[O-])ccc4c3CCC4OP(=O)(N3CC3)N3CC3)cc2)c1=O` (stereo not shown) [Example 49], the 50% inhibitory concentration (IC50) in assay [1] (H460 cells) is < 10 nM; in assay [2] it was 920 nM.

As for `O=[N+]([O-])c1ccc2c(c1Oc1ccc(F)c(OC3CCOCC3)c1)CC[C@H]2OP(=O)(N1CC1)N1CC1` [Example 496], the IC50 was < 10 nM in assay [1] (setting [3]) and 783 nM in assay [2].

Turning to `Cn1cnc(-c2cccc(Oc3c([N+](=O)[O-])ccc4c3CCC4OP(=O)(N3CC3)N3CC3)c2)cc1=O` (stereo not shown) [Example 118], the IC50 was 10 to 50 nM in assay [1] (H460 cells) and 4510 nM in assay [2].

As for `[2H]C([2H])([2H])N(C(=O)c1cccc(Oc2cc3cc([C@H](C)OP(=O)(N4CC4)N4CC4)oc3cc2[N+](=O)[O-])c1)C([2H])([2H])[2H]` (single isomer, unassigned) [Example 533], the results for the IC50 in assay [1] (setting [3]) and in assay [2] were 10 to 50 nM and 7430 nM, respectively.

The values above are taken from patent US20260167656A1, “PHOSPHORAMIDATE COMPOUNDS AND USES THEREOF” (ALLORION THERAPEUTICS INC, priority 2022, published 2026).
